From publication PMC6272548, “Synthesis and Antiplatelet Activity of Antithrombotic Thiourea Compounds: Biological and Structure-Activity Relationship Studies” (Molecules, 2015)

Legend:
PGE2 production = experiment: Measurement of plasma PGE2 levels by EIA in platelet-rich plasma; type: cell-based; conditions: human platelet-rich plasma
Experimental: The stable direct metabolite of PGE2, 13,14-dihydro-15-keto-Prostaglandin E2, is a known marker of the COX-1 activity. By the measurement of total levels of this PGE2 metabolite in human platelet-rich plasma, we evaluated the feasibility of antiplatelet N,N'-disubstituted thioureas to inhibit COX-1 activity in healthy platelets (Table 2).
Plasma samples containing 100 μM of each thiourea with antiplatelet activity were used to determine the concentrations of […], an index of in vitro COX-1 activity. Briefly, ozagrel (3 μL, 100 μM) were added to stop TXS activity and the aggregation were triggered with 10 μL of arachidonic acid (500 μM) in PRP samples containing each active derivative (100 μM) under stir conditions. After five minutes the suspensions were mixed with indomethacin (3 μL, 10 mM) stop-solution. By sonication for 1 min, platelets were disrupted and purification step were performed according to the manufacturer’s instructions (Cayman Chemical Co.). Plasma levels of PGE2 were measured in duplicate by competitive immunoassay using commercially available kits for EIA (PGE2 EIA Kit, Cayman Chemical Co.) according to the manufacturer’s instructions. A threshold of 25.75 ng/mL was defined as control plasma levels of PGE2 after platelet disrupture.

TXB2 production = experiment: Measurement of plasma TXB2 levels by EIA in platelet-rich plasma; type: cell-based; conditions: Homo sapiens, Platelet
Experimental: Thromboxane B2 (TXB2), a stable TXA2 metabolite, is widely used as a prognostic risk marker of platelet activation in cardiovascular disease, which is closely related to COX-1 and Thromboxane Synthetase activity. Thus, the plasma levels of this metabolite were measured using an enzyme immunoassay (EIA) as described in the Experimental Section.
Plasma samples containing 100 μM of each thiourea with antiplatelet activity were used to determine the concentrations of thromboxane B2, an index of in vitro COX-1 activity. Briefly, 10 μL of arachidonic acid (500 μM) were added to platelet-rich plasma samples containing each active derivative (100 μM) under stir conditions. After five minutes the suspensions were mixed with 3 μL Indomethacin (10 mM) stop-solution. By sonication for 15 min, platelets were disrupted, and the resulting homogenates were centrifuged at 2000 g for 10 min to allow complete release of TXB2. Plasma levels of TXB2 were measured in duplicate by competitive immunoassay using commercially available kits from EIA Cayman (TXB2 EIA Kit, Cayman Chemical Co, Ann Arbor, MI, USA) according to the manufacturer’s instructions. A threshold of 25.75 ng/mL was defined as control plasma levels of TXB2 after platelet disrupture.

Salmonella typhimurium = experiment: Reverse mutagenesis to histidine prototrophy (Ames test), spot test; conditions: without metabolic activation; 10 µM, 100 µM and 500 µM
Experimental: This assay was performed as described by Maron and Ames, using the histidine Salmonella typhimurium auxotroph mutant strains TA97, TA98, TA100 and the […] TA102 (Table 5).

Escherichia coli = experiment: SOS chromotest, spot test; type: cell-based
Experimental: The SOS chromotest (spot test) was performed according to Quillardet and Hofnung, using Escherichia coli (Table 6) strains PQ35 and PQ37. One hundred microliters of an overnight culture of the E. coli strains are diluted in 5 mL of LB medium and the culture is incubated at 37 °C in a gyratory incubator up to a concentration of 2 × 10^8 bacteria/mL. Fractions of 0.1 mL of the culture are then distributed into test tube with top agar, and the mixture is poured immediately on M63 medium plate. A sample of 10 µL of the thiourea derivatives is spotted onto the center of the plate. After overnight incubation at 37 °C, the presence of a blue ring around a zone of inhibition indicates genotoxic activity.

[1] = Hemolysis assay (erythrocyte lysis); type: cell-based, human; conditions: human, erythrocyte suspension, pH 7.4; 3 h incubation; derivatives and ASA at 100 μM, TRITON at 1%
Experimental: Healthy erythrocytes were washed three times with PBS (pH 7.4) by centrifugation and suspended in the same buffer. All derivatives were incubated with the erythrocyte suspension for 3 h at 37 °C. The release of hemoglobin was determined by monitoring the optical density of the supernatant at 540 nm. The experiments were performed in triplicate and complete hemolysis (positive control) was determined using 1% Triton X-100. Hemolysis less than 10% indicated good hemocompatibility and non-toxicity of the molecules tested.

CC(=O)Oc1ccccc1C(=O)O [Aspirin, acetylsalicylic acid, reference compound]
inhibition at 100 µM (PGE2 production): 47.5 ± 1.4%
inhibition at 100 µM (TXB2 production): 78.5 ± 5%
Ames Test S. typhimurium TA97 (Salmonella typhimurium): -
Ames Test S. typhimurium TA98 (Salmonella typhimurium): -
Ames Test S. typhimurium TA100 (Salmonella typhimurium): -
Ames Test S. typhimurium TA102 (Salmonella typhimurium): -
SOS Chromotest E. coli PQ35 (Escherichia coli): -
hemolysis at 3 h, 100 µM [1]: 2%
